# Where two headings read alike, the source gives them in different places. Ends that are not written are not given here.
# Key:
# Assay in all cases: FP displacement (competition) of FITC-15 AA CRIPT by library peptide, IC50 and Ki
# [1] = target: PDZ3 (PSD-95) (Homo sapiens, UniProt P78352)
# [2] = target: PSG G335A (PSD-95); conditions: for IC50: read-out: IC50 (µM), PSG G335A; for Ki: read-out: Ki (µM), PSG G335A
# [3] = target: PSG G322A (PSD-95); conditions: for IC50: read-out: IC50 (µM), PSG G322A; for Ki: read-out: Ki (µM), PSG G322A
# [4] = target: PSG (PSD-95); conditions: for IC50: read-out: IC50 (µM), PSG
# [5] = target: PSG G322A G335A (PSD-95); conditions: for IC50: read-out: IC50 (µM), PSG G322A G335A
# [6] = FP displacement of FITC-15 AA CRIPT probe by acetylated PSD library peptide
# [7] = FP displacement of 5 nM FITC-15 AA CRIPT by non-labeled acetylated peptide, room temperature, Ki from IC50, technical triplicates, PSG
# [8] = read-out: Ki (µM), PSG, FP displacement of FITC-15 AA CRIPT probe by acetylated PSD library peptide
# [9] = FP displacement of FITC-15 AA CRIPT probe by library peptide
# [10] = FP displacement of FITC-15 AA CRIPT probe by acetylated PSD library peptide (P-13 to P0 plus extra N-terminal Y)
# [11] = FP displacement of FITC-15 AA CRIPT probe by PSD library peptide, protein PSG G335A
# [12] = FP displacement of FITC-15 AA CRIPT probe by PSD library peptide, protein PSG G322A
# Sequence of PDZ3 (PSD-95) (P78352 313-393 limits assumed): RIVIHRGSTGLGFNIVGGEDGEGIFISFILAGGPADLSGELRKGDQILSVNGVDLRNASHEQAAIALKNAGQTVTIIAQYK
Compound,IC50 [1],"IC50 [2, 6]","Ki [2, 6]","IC50 [3, 6]","Ki [3, 6]","Ki [4, 7]","IC50 [4, 6]","Ki [4, 8]","IC50 [5, 10]",also measured
CC(=O)N[C@@H](Cc1ccc(O)cc1)C(=O)N[C@@H](C)C(=O)N[C@@H](CO)C(=O)N[C@@H](CC(N)=O)C(=O)N[C@H](C(=O)N[C@@H](CC(N)=O)C(=O)N[C@H](C(=O)N[C@@H](CC(C)C)C(=O)N[C@@H](CC(N)=O)C(=O)N[C@@H](CCCNC(=N)N)C(=O)N[C@@H](CCCCN)C(=O)N[C@H](C(=O)N[C@H](C(=O)N1CCC[C@H]1C(=O)N[C@H](C(=O)O)C(C)C)[C@@H](C)O)[C@@H](C)O)[C@@H](C)O)[C@@H](C)O [CCG8],19 µM,28 µM,10 µM,15 µM,6 µM,< 75 µM,116 µM,49 µM,–,"Ki ([1]; Ki, FP displacement of 5 nM FITC-15 AA CRIPT by non-labeled acetylated peptide, room temperature, Ki from IC50, technical triplicates, PDZ3): < 75 µM"
Ac-YSSPAQSVTPVQTVV [MTMR2],333 µM,–,–,–,–,–,–,–,–,"IC50 [2, 9]: 277 µM; Ki [2, 9]: 99 µM; IC50 [3, 9]: 295 µM; Ki ([1]; Ki (µM), PDZ3, FP displacement of FITC-15 AA CRIPT probe by library peptide): 139 µM; IC50 [4, 9]: 271 µM; Ki ([4]; read-out: Ki (µM), PSG, FP displacement of FITC-15 AA CRIPT probe by library peptide): 115 µM; Ki ([5]; FP displacement of 5 nM FITC-15 AA CRIPT by non-labeled acetylated peptide, room temperature, Ki from IC50, PSG G322A G335A): 95 µM"
CC[C@H](C)[C@H](NC(=O)[C@H](CCC(=O)O)NC(=O)[C@H](CCC(=O)O)NC(=O)[C@@H](NC(=O)[C@@H](NC(=O)[C@H](CO)NC(=O)[C@H](CCC(=O)O)NC(=O)[C@H](Cc1ccc(O)cc1)NC(C)=O)[C@@H](C)O)[C@@H](C)O)C(=O)N[C@@H](CCC(=O)O)C(=O)N[C@@H](CC(C)C)C(=O)N[C@@H](CCC(=O)O)C(=O)N[C@@H](CC(=O)O)C(=O)N[C@H](C(=O)N[C@@H](CCC(=O)O)C(=O)N[C@@H](CS)C(=O)O)C(C)C [VSTM5],–,120 µM,43 µM,86 µM,37 µM,< 75 µM,75 µM,31 µM,73 µM,–
CC(=O)N[C@@H](Cc1ccc(O)cc1)C(=O)N[C@@H](CC(C)C)C(=O)N[C@@H](C)C(=O)N[C@@H](CC(=O)O)C(=O)N[C@@H](CCC(=O)O)C(=O)N[C@H](C(=O)N[C@@H](CO)C(=O)N[C@@H](C)C(=O)N[C@@H](CO)C(=O)N[C@@H](CC(C)C)C(=O)N[C@@H](C)C(=O)N[C@@H](CCCCN)C(=O)N[C@@H](CCC(N)=O)C(=O)NCC(=O)N[C@@H](CC(C)C)C(=O)O)C(C)C [TAU],–,–,–,–,–,–,–,–,–,"IC50 [2, 11]: 729 µM; Ki [2, 11]: 260 µM; IC50 [3, 12]: 489 µM; Ki [3, 12]: 212 µM; IC50 ([4]; FP displacement of FITC-15 AA CRIPT probe by PSD library peptide, protein PSG (wild type)): 2070 µM; Ki ([4]; read-out: Ki (µM), PSG, FP displacement of FITC-15 AA CRIPT probe by PSD library peptide, protein PSG (wild type)): 884 µM; IC50 ([5]; FP displacement of FITC-15 AA CRIPT probe by PSD library peptide, protein PSG G322A G335A): 219 µM; Ki ([5]; read-out: Ki (µM), PSG G322A G335A, FP displacement of FITC-15 AA CRIPT probe by PSD library peptide, protein PSG G322A G335A): 76 µM"

# The next lines start with results.
IC50 [1],"IC50 [2, 6]","Ki [2, 6]","IC50 [3, 6]","Ki [3, 6]","Ki [4, 7]","IC50 [4, 6]","Ki [4, 8]","IC50 [5, 10]",Compound,also measured
396 µM,–,–,–,–,–,–,–,–,Ac-YDSIEIYIPEAQTRL [DLGP2],"Ki ([1]; Ki (µM), PDZ3, FP displacement of FITC-15 AA CRIPT probe by PSD library peptide, protein PDZ3): 165 µM"
–,516 µM,184 µM,2260 µM,982 µM,–,2080 µM,888 µM,727 µM,CSCC[C@H](NC(=O)[C@H](CO)NC(=O)[C@H](Cc1ccc(O)cc1)NC(=O)[C@H](CC(C)C)NC(=O)[C@H](Cc1ccc(O)cc1)NC(=O)[C@H](Cc1ccc(O)cc1)NC(=O)[C@H](Cc1ccccc1)NC(=O)[C@H](Cc1ccc(O)cc1)NC(C)=O)C(=O)N[C@H](C(=O)N[C@@H](Cc1ccc(O)cc1)C(=O)N[C@H](C(=O)N[C@@H](CC(C)C)C(=O)N[C@H](C(=O)N[C@@H](CO)C(=O)N[C@@H](Cc1ccccc1)C(=O)O)C(C)C)[C@@H](C)O)C(C)C [CNIH2],"Ki ([5]; read-out: Ki (µM), PSG G322A G335A, FP displacement of FITC-15 AA CRIPT probe by acetylated PSD library peptide): 252 µM"

# Source: publication PMC9490041, “Determinants of affinity, specificity, and phase separation in a supramodule from Post-synaptic density protein 95” (iScience, 2022)
